Entries after “also recorded” stand apart in the source; their conditions may differ.
Assays:
[1] = system: HT1080 cells; assay: Bulk telomere length, Southern blot, HT1080; format: cell-based, human
[2] = system: SL13 cells; assay: Bulk telomere length, Southern blot, SL13 long-term culture; format: cell-based, mouse
Excerpt: ATM has been proposed to play different roles in signaling telomere dysfunction in human and mouse cells. Since it is not yet clear whether the damage signaling is mechanistically linked to telomere elongation, and given the discrepant reports of the role of ATM in human telomere length, the role of ATM in human cells was revisited.
As an independent test of Olaparib on telomere length, telomeres were examined by Southern blot in cultured SL13 cells grown in the presence of Olaparib for an extended time. […] Taken together, the experiments described here indicate that inhibition of ATM blocks telomere elongation while activation of ATM stimulates telomere elongation.
Telomere lengths of SL13 cells treated with 10 μM KU55933 were measured at different population doublings (PD) using genomic Southern blot analysis. […] Boxed numbers indicate the pixel positions corresponding to the blot.
To examine the in vivo chr4 cleavage, genomic DNA of SL13 treated with doxycycline for various time points was extracted using the Puregene™ Core Kit A (Qiagen) and digested with NcoI restriction enzyme (NEB). […] Labeled probe was counted and 10^6 counts/ml (probe) or 10^4 counts/ml (2-log ladder) was denatured at 100° C. for 5 minutes and added to the pre-hybridization solution and hybridized overnight at 42° C. […]

[3] = target: T1, telomerase (Homo sapiens, UniProt O14746); assay: Direct telomerase activity assay in lysates of treated cells; format: cell-based; conditions: 293TREx-0611 cells; 30 μM KU55933 or 5 μM Olaparib for two hours
T1 construct: expressed in transfected cells; host or cells: 293TREx-0611 cells overexpressing TPP1, POT1 and hTERT, transfected with U1-hTR; whole cell lysate
T1 sequence (O14746 whole entry): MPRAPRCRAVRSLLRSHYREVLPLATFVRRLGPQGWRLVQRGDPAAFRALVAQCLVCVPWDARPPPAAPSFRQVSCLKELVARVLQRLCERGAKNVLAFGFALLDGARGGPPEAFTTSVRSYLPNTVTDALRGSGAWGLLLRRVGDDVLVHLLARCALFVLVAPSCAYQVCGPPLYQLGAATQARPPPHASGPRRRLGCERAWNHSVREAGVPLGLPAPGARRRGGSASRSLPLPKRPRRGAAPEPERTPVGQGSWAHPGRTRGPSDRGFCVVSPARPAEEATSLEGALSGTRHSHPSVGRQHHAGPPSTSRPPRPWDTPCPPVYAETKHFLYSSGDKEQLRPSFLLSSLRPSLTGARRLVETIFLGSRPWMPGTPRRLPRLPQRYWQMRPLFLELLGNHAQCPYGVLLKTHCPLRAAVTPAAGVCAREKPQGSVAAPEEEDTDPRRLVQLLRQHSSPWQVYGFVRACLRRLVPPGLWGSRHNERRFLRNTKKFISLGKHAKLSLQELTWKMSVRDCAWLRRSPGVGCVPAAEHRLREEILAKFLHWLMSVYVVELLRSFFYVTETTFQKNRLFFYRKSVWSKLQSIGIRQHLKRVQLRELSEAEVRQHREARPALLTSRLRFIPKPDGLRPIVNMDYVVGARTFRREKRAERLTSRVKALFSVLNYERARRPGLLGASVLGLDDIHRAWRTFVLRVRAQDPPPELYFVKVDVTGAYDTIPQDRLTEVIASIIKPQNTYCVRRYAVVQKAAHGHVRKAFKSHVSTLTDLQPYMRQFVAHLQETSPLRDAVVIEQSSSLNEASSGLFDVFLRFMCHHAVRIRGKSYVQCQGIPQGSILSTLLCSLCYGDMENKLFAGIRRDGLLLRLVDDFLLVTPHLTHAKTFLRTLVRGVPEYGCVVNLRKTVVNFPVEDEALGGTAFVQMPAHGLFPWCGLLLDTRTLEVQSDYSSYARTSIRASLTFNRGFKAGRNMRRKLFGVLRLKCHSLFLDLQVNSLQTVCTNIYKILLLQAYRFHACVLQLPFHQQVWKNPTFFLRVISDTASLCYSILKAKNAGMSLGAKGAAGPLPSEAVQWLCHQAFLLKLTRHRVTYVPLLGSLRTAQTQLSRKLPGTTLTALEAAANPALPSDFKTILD
T1 sequence (O60832 whole entry partner): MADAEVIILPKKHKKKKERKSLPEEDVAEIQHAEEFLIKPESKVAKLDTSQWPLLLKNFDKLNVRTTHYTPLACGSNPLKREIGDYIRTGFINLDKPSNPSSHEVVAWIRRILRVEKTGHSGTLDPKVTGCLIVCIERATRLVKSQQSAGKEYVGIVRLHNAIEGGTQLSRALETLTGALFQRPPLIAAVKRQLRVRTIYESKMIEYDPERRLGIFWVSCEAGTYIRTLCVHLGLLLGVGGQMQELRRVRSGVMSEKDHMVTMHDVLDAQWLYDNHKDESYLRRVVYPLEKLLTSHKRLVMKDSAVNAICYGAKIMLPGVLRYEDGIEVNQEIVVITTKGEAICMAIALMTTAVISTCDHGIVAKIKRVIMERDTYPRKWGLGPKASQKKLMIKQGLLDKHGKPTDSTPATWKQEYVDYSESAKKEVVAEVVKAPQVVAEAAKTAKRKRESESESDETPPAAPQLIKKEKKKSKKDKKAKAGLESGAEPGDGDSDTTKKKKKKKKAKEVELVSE
T1 sequence (Q9NPE3 whole entry partner): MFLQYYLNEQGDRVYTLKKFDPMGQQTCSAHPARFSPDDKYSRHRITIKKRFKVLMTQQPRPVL
T1 sequence (Q9NX24 whole entry partner): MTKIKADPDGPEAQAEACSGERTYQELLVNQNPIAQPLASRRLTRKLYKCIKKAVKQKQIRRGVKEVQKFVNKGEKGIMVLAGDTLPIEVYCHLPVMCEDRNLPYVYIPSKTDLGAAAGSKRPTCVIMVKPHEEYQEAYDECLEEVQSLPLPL
T1 sequence (Q9NY12 whole entry partner): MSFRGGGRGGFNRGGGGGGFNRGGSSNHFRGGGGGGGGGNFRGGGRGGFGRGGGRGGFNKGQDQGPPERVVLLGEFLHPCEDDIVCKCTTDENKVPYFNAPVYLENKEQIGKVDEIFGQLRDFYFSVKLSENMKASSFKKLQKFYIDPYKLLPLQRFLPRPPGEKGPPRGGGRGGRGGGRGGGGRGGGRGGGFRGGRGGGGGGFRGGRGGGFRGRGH
Method: Telomerase is known to be phosphorylated, so whether the KU55933 or Olaparib treatment of cells might directly affect telomerase activity was examined. […] ATM kinase is a positive regulator of telomere elongation in both mouse and human cells, and the effects of ATM inhibition are not due to inhibition of telomerase enzyme activity.
Telomerase activity was assayed in whole cell lysates with a modified protocol (Nandakumar et al., 2012, Nature 492, 285-289). 293TREx-0611 cells overexpressing TPP1, POT1, and hTERT were seeded (3×10^5 cells) per well in a poly-D-Lysine coated 6-well plate. The next day, cells were transfected with U1-hTR using Lipofectamine™ 3000 and incubated overnight. Then, they were treated with 30 μM KU55933, 5 μM Olaparib, or DMSO for two hours before harvesting in 100 μl 1×CHAPS. Cells were lysed on ice for 30 minutes, vortexing occasionally, and cleared by spinning (8000 rpm, 20 min, 4° C.). For negative controls, 25 μl cleared lysate was incubated at 65° C. with 1 μl RNaseA (1 mg/ml) for 10 minutes. For direct telomerase assays, lysates were incubated with primer a5 (Wang et al., 2007) in 1× telomerase buffer (50 mM Tris-Cl, 30 mM KCl, 1 mM MgCl2, 1 mM spermidine), 0.5 mM dTTP, 0.5 mM dATP, 2.92 μM dGTP, and 0.33 μM α32P-dGTP at 30° C. Reactions were stopped at 10 or 15 minutes with 20 mM EDTA, 10 mM Tris spiked with 500 cpm end-labeled 18mer. […]

[4] = system: PARP1-4; conditions: in vitro assays; cited from earlier work

| SMILES | bulk telomere length [1] | bulk telomere length ([2]; SL13 cells grown in 10 μM KU55933, different population doublings) | telomerase activity [3] | telomere length by Southern blot ([2]; SL13 cells grown in presence of Olaparib for 55 population doublings) | specificity to PARP1-4 [4] |
| --- | --- | --- | --- | --- | --- |
| O=c1cc(-c2cccc3c2Sc2ccccc2S3)oc(N2CCOCC2)c1 [KU55933] | shortens bulk telomeres | telomere shortening also occurred, although at a somewhat slower rate | no change in telomerase activity |  |  |
| O=C(c1cc(Cc2n[nH]c(=O)c3ccccc23)ccc1F)N1CCN(C(=O)C2CC2)CC1 [Olaparib] |  |  | no change in telomerase activity | Telomere length gradually increased; also recorded: gradually increased after 25 PDs | highly specific to PARP1-4 |

From US20180110777A1, “METHOD FOR REGULATION OF TELOMERE LENGTH” (The Johns Hopkins University, priority 2015, published 2018)
